According to ChEMBL document CHEMBL1667859 (Bioorg Med Chem, 2011):

Target: 5-hydroxytryptamine receptor 6 (Homo sapiens, UniProt P50406)
Sequence (P50406 whole entry): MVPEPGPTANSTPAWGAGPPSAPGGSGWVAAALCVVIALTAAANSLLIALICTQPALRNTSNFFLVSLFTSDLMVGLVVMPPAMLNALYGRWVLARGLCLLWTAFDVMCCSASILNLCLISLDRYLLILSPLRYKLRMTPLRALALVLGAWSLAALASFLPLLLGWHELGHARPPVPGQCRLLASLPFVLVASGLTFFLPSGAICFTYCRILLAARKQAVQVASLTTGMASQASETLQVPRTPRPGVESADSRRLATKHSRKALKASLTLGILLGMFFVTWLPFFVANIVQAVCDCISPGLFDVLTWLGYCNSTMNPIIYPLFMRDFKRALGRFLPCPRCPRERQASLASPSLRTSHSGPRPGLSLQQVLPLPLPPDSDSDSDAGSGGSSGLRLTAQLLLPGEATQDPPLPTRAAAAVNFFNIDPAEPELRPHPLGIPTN
Description: Antagonist activity at human recombinant 5HT6 receptor expressed in HEK293 cells assessed as inhibition of serotonin-induced cAMP accumulation after 2 hrs

Q: Which Ki does the source give for `CNc1nn2c(CO)cc(C)nc2c1S(=O)(=O)c1ccccc1` here?
A: 0.282 nM

Q: With `CSc1nn2c(C)cc(C)nc2c1S(=O)(=O)c1ccc(F)c(Cl)c1` as the compound, how does the Ki read?
A: 3.8 nM

Q: `CNc1nn2c(C)cc(CO)nc2c1S(=O)(=O)c1ccccc1` was tested. Which Ki did it give?
A: 0.479 nM

Q: With `CNc1nn2cccnc2c1S(=O)(=O)c1ccccc1` as the compound, how does the Ki read?
A: 3.89 nM

Q: Which Ki does the source give for `COCc1cc(C)n2nc(SC)c(S(=O)(=O)c3ccccc3)c2n1` here?
A: 3.24 nM

Q: Which Ki does the source give for `CNc1nn2c(C)ccnc2c1S(=O)(=O)c1ccccc1` here?
A: 0.24 nM

Q: `CSc1nn2c(C)cc(C)nc2c1S(=O)(=O)c1ccc(F)cc1` was tested. Which Ki did it give?
A: 6.76 nM

Q: For `CNc1nn2c(C)cc(C)nc2c1S(=O)(=O)c1ccc(OC)cc1`, which Ki is on record?
A: 9.55 nM

Q: Which Ki does the source give for `CSc1nn2c(C)cc(C)nc2c1S(=O)(=O)c1ccc(N(C)C)cc1` here?
A: 37.2 nM

Q: Which Ki does the source give for `CNc1nn2c(C)cc(C)nc2c1S(=O)(=O)c1ccc(F)c(Cl)c1` here?
A: 0.603 nM

Q: With `CSc1nn2cccnc2c1S(=O)(=O)c1ccc(F)cc1` as the compound, how does the Ki read?
A: 132 nM

Q: How did the Ki turn out when `CSc1nn2c(C)cc(C)nc2c1S(=O)(=O)c1cccc(F)c1` was run?
A: 1.07 nM

Q: Which Ki does the source give for `CSc1nn2cccnc2c1S(=O)(=O)c1cccc(Cl)c1` here?
A: 15.1 nM

Q: With `CNc1nn2cccnc2c1S(=O)(=O)c1ccc(F)cc1` as the compound, how does the Ki read?
A: 11.7 nM

Q: For `CNc1nn2c(C)cc(C)nc2c1S(=O)(=O)c1cccc(Cl)c1`, which Ki is on record?
A: 0.186 nM

Q: How did the Ki turn out when `CSc1nn2c(C)cc(C)nc2c1S(=O)(=O)c1ccc(Cl)cc1` was run?
A: 3.16 nM

Q: `CNc1nn2c(C)cc(C)nc2c1S(=O)(=O)c1ccccc1` was tested. Which Ki did it give?
A: 0.257 nM

Q: Which Ki does the source give for `CSc1nn2c(C)cc(CO)nc2c1S(=O)(=O)c1ccccc1` here?
A: 2.14 nM

Q: With `CNc1nn2c(COC)cc(C)nc2c1S(=O)(=O)c1ccccc1` as the compound, how does the Ki read?
A: 7.59 nM

Q: With `CNc1nn2c(C)cc(COC)nc2c1S(=O)(=O)c1ccccc1` as the compound, how does the Ki read?
A: 0.269 nM

Q: With `CNc1nn2c(C)cc(C)nc2c1S(=O)(=O)c1ccc(O)cc1` as the compound, how does the Ki read?
A: 2 nM

Q: `CSc1nn2c(C)cc(C)nc2c1S(=O)(=O)c1ccc(O)cc1` was tested. Which Ki did it give?
A: 3.98 nM

Q: Which Ki does the source give for `CSc1nn2cccnc2c1S(=O)(=O)c1ccccc1` here?
A: 115 nM

Q: `CSc1nn2ccc(C)nc2c1S(=O)(=O)c1ccc(F)c(Cl)c1` was tested. Which Ki did it give?
A: 7.94 nM

Q: `CSc1nn2c(C)ccnc2c1S(=O)(=O)c1ccccc1` was tested. Which Ki did it give?
A: 16.6 nM

Q: For `CSc1nn2c(C)cc(C)nc2c1S(=O)(=O)c1cccc(Cl)c1`, which Ki is on record?
A: 0.759 nM

Q: How did the Ki turn out when `COc1ccc(S(=O)(=O)c2c(SC)nn3c(C)cc(C)nc23)cc1` was run?
A: 37.2 nM

Q: Which Ki does the source give for `CSc1nn2c(CO)cc(C)nc2c1S(=O)(=O)c1ccccc1` here?
A: 0.562 nM

Q: How did the Ki turn out when `COCc1cc(C)nc2c(S(=O)(=O)c3ccccc3)c(SC)nn12` was run?
A: 155 nM

Q: `CSc1nn2ccc(C)nc2c1S(=O)(=O)c1ccccc1` was tested. Which Ki did it give?
A: 16.6 nM

Q: Which Ki does the source give for `CNc1nn2cccnc2c1S(=O)(=O)c1cccc(Cl)c1` here?
A: 1.17 nM

Q: `CNc1nn2c(C)cc(C)nc2c1S(=O)(=O)c1cccc(F)c1` was tested. Which Ki did it give?
A: 0.501 nM

Q: With `CNc1nn2c(C)cc(C)nc2c1S(=O)(=O)c1ccc(F)cc1` as the compound, how does the Ki read?
A: 0.398 nM

Q: With `CSc1nn2cccnc2c1S(=O)(=O)c1ccc(F)c(Cl)c1` as the compound, how does the Ki read?
A: 44.7 nM

Q: Which Ki does the source give for `CSc1nn2c(C)cc(C)nc2c1S(=O)(=O)c1ccccc1` here?
A: 1.2 nM

Q: With `CNc1nn2ccc(C)nc2c1S(=O)(=O)c1ccccc1` as the compound, how does the Ki read?
A: 1.45 nM
